Key:
[1] = system: FAM83A overexpressing T4-2 cells; assay: Phenotypic reversion of FAM83A-overexpressing T4-2 cells in 3D lrECM with inhibitors; type: cell-based, human; conditions: for phenotypic reversion of full-length FAM83A overexpressing T4-2 cells: 3D lrECM (FIG. 5B)
HMT3522 T4-2 cells = assay: Phenotypic reversion of malignant T4-2 cells cultured in 3D lrECM with signaling inhibitors; type: cell-based, human; conditions: for induction of phenotypically normal acinus-like structures: T4-2 cells in 3D lrECM; for phenotypic reversion of control T4-2 cells: vector control T4-2 cells (FIG. 17C)
Excerpt: The retroviral cDNA library from malignant T4-2 cells was re-introduced into T4-2 cells. Retrovirus transduced T4-2 cells were subsequently grown on 3D1rECM with one of the small molecule inhibitors, AG1478 (EGFR inhibitor), PD98059 (mitogen-activated protein kinase inhibitor), or LY294002 (PI3K inhibitor), […] […] After the second round of screening, the cDNA inserts were recovered from genomic DNA by PCR using primers to the flanking sequences of the retroviral cloning vector. Genomic DNA was isolated from selected clones grown on the monolayer.
Microscopic visual fields of FIG. 3 show non-malignant HMT3522 S1 cells form polarized acinar structures (FIG. 3A) resembling normally differentiated acinus in vivo, whereas malignant T4-2 cells form disorganized colonies constantly growing on 3D 1rECM (FIG. 3B).
(§1) FIG. 4B is a western blot of extracted cell lysates blotted with antibodies against EGFR, β-integrin, phosphorylated EGFR, and E-cadherin, which was used as a loading control.

[2] = system: FAM83A-overexpressing T4-2 cells; assay: Lapatinib treatment of FAM83A-overexpressing T4-2 xenografts in mice; type: in vivo, BALB/c-nude mice
Description: (§2) Animal experiments were performed under federal guidelines and approved by Institutional Animal Welfare and Research Committee at LBN. Exponentially growing T4-2 cells or MDA-MB-468 cells were suspended at the density of 5×10^6 or 10×10^6, respectively, in 100 μl medium containing DMEM/F12 medium (50%) and Matrigel (50%). Cell suspension was subcutaneously injected into the rear flank of 6-8 wk old athymic female BALB/c-nude mice (nu/nu) (Charles River Laboratories) (n=8 per group). Tumor volumes were measured every other day. ANOVA 2-way analysis with Bonferroni post test was used to determine p-value. At the end of experiments, mice were sacrificed and subjected to pathological examinations.
(§3) The ability of FAM83A to confer cancer cell resistance to EGFR inhibitor in vivo was determined Vector control or FAM83A-overexpressing T4-2 cells were xenografted into mice, which were orally administered lapatinib by oral gavage at 30 mg/kg or 100 mg/kg twice daily for 3 weeks. […] Then, mice were randomized into vehicle (0.5% hydroxypropylmethylcellulose with 0.1% Tween 80 in water; n=8) and experimental treatment groups (n=8) to receive oral gavage of lapatinib at 30 mg/kg or 100 mg/kg twice daily for 3 weeks.

[3] = system: Vector control T4-2 cells; assay: Lapatinib treatment of vector control T4-2 xenografts in mice; type: in vivo, BALB/c-nude mice
Description: as §2, §3

EGFR = assay: Western blot of EGFR, phosphorylated EGFR and β1-integrin in AG1478-treated T4-2 cells; type: cell-based, human; conditions: 3D lrECM, western blot (FIG. 4B)
Excerpt: as §1

FAM83A [4] = assay: RT-PCR and western blot of endogenous FAM83A in AG1478-treated T4-2 cells; type: cell-based, human
Description: The expression level of endogenous FA[…] in non-reverted and reverted T4-2 cells was analyzed by RT-PCR and western blot with antibody against endogenous FA[…]. […] RNA levels in T4-2 cells cultured in both 2D monolayer and 3D 1rECM treated with AG1478 or vehicle control DMSO for 4 days. FIG. 7B is a bar graph quantification of the results from FIG. 7A. […] RNA levels in S1 cells growing in 2D or 3D cultures. FIG. 7C is a western blot comparison of FA[…] protein levels in S1 and T4-2 cells growing in 2D or 3D cultures in the presence or absence of AG1478.

MDA-MB468 cells = assay: Xenograft growth of FAM83A shRNA-treated MDA-MB468 cells in nude mice; type: in vivo, BALB/c-nude mice; conditions: fraction of the control cells (FIG. 17B)
Description: as §2
To confirm this observation for cells with stable FAM83A-depletion and a different genetic background, control or FAM83A shRNA-treated MDA-MB468 cells were subcutaneously injected into the rear flank of nude mice and monitored for their growth. For FAM83A shRNA production, a double-stranded DNA oligonucleotide was generated from the following sequences: sense, 5′-[…]-3′ (SEQ ID NO:7); antisense, 5′-[…]-3′ (SEQ ID NO:8) (target sequence underlined; BamH1/EcoR1 cohesive ends italicized). Both oligonucleotides were annealed and ligated into BamH1/EcoR1 site of pGreen puro lentival vector (System Biosciences).

FAM83A [5] = assay: FAM83A protein knock-down by siRNA in T4-2 cells (western blot and immunofluorescence with FAM83A polyclonal antibody); type: cell-based, human; conditions: T4-2 lysates, western blot vs scrambled control (FIG. 14B)
Description: The specificity of FAM83A polyclonal antibody was tested by performing western blot and immunofluorescence analysis in two different sets of FAM83A-specific siRNA-treated T4-2 cells (siRNA#1, SEQ ID NO:1; and siRNA#2, SEQ ID NO:2) using the FAM83A polyclonal antibody.

[6] = lapatinib 30 mg/kg, hematoxylin and eosin (FIG. 18B)
[7] = lapatinib oral gavage twice daily for 3 weeks, 30 mg/kg (FIG. 17D)

## COc1cccc(-c2cc(=O)c3ccccc3o2)c1N [PD98059]
[1]
  phenotypic reversion of full-length FAM83A overexpressing T4-2 cells: undergo phenotypic reversion
HMT3522 T4-2 cells; 20 μM PD98059
  induction of phenotypically normal acinus-like structures: phenotypically normal acinus-like structures were induced

## COc1cc2ncnc(Nc3ccc(F)c(Cl)c3)c2cc1OCCCN1CCOCC1 [gefitinib]
HMT3522 T4-2 cells
  phenotypic reversion of control T4-2 cells: reverted

## CS(=O)(=O)CCNCc1ccc(-c2ccc3ncnc(Nc4ccc(OCc5cccc(F)c5)c(Cl)c4)c3c2)o1 [lapatinib]
[2]; [6]
  pathological examination of sectioned FAM83A-overexpressing tumors: had been invading the stromal regions
[2]; lapatinib oral gavage twice daily for 3 weeks (FIG. 17D)
  size of lapatinib-treated FAM83A-overexpressing tumors relative to controls: 5 times
[2]; [7]
  growth of FAM83A-overexpressing tumors: not affected
[3]; 30 mg/kg or 100 mg/kg oral gavage twice daily (FIG. 18A)
  dose dependence of tumor inhibitory action on control cells: independent of the dose above 30 mg/kg
[3]; [6]
  pathological examination of sectioned control tumors: well-circumscribed and distinctly separated from the stromal regions
[3]; [7]
  growth of control tumors: significantly inhibited
[1]; FIG. 17C
  structure of FAM83A-overexpressing T4-2 cells in presence of EGFR inhibitor: maintained disorganized structures
HMT3522 T4-2 cells
  phenotypic reversion of control T4-2 cells: reverted

## AG1478
EGFR
  EGFR protein level: decreased levels
  phosphorylated EGFR level: lower levels
  β1-integrin protein level: decreased levels
[1]
  phenotypic reversion of full-length FAM83A overexpressing T4-2 cells: not
FAM83A [4]; AG1478 4 days, RT-PCR
  FAM83A mRNA expression: decreased
FAM83A [4]; AG1478, western blot
  FAM83A protein expression: decreased
HMT3522 T4-2 cells; 3D lrECM, 10 days, different concentrations (FIG. 4A)
  morphology of T4-2 cells treated with AG1478: form growth arrested acinus-like structures
HMT3522 T4-2 cells; 100 nM AG1478
  induction of phenotypically normal acinus-like structures: phenotypically normal acinus-like structures were induced

B1: FAM83A shRNA: shRNA from double-stranded DNA oligonucleotide (SEQ ID NO:7 and 8) ligated into pGreen puro lentiviral vector (nucleic acid)
sense: GATCCGTGTGGAAGGAGAGATATACTTCCTGTCAGATATATCTCTCCTTCCACACTTTTTG
antisense: AATTCAAAAAGTGTGGAAGGAGAGATATATCTGACAGGAAGTATATCTCTCCTTCCACACG
MDA-MB468 cells
  tumor growth relative to control cells: ¼

B2: siRNA#1: one of two different sets of FAM83A-specific siRNA; printed as SEQ ID NO:1 (nucleic acid)
chain: ATGAGCCGGTCAAGGCACCTGGGCAAAATCCGGAAGCGTCTGGAAGATGTCAAGAGCCAGTGGGTCCGGCCAGCCAGGGCTGACTTTAGTGACAACGAGAGTGCCCGGCTGGCCACGGACGCCCTCTTGGATGGGGGTTCTGAAGCCTACTGGCGGGTGCTCAGCCAGGAAGGCGAGGTGGACTTCTTGTCCTCGGTGGAGGCCCAGTACATCCAGGCCCAGGCCAGGGAGCCCCCGTGTCCCCCAGACACCCTGGGAGGGGCGGAAGCAGGCCCTAAGGGACTGGACTCCAGCTCCCTACAGTCCGGCACCTACTTCCCTGTGGCCTCAGAGGGCAGCGAGCCGGCCCTACTGCACAGCTGGGCCTCAGCTGAGAAGCCCTACCTGAAGGAAAAATCCAGCGCCACTGTGTACTTCCAGACCGTCAAGCACAACAACATCAGAGACCTCGTCCGCCGCTGCATCACCCGGACTAGCCAGGTCCTGGTCATCCTGATGGATGTGTTCACGGATGTGGAGATCTTCTGTGACATTCTAGAGGCAGCCAACAAGCGTGGGGTGTTCGTTTGTGTGCTCCTGGACCAGGGAGGTGTGAAGCTCTTCCAGGAGATGTGTGACAAAGTCCAGATCTCTGACAGTCACCTCAAGAACATTTCCATCCGGAGTGTGGAAGGAGAGATATACTGTGCCAAGTCAGGCAGGAAATTCGCTGGCCAAATCCGGGAGAAGTTCATCATCTCGGACTGGAGATTTGTCCTGTCTGGATCTTACAGCTTCACCTGGCTCTGCGGACACGTGCACCGGAACATCCTCTCCAAGTTCACAGGCCAGGCGGTGGAGCTGTTTGACGAGGAGTTCCGCCACCTCTACGCCTCCTCCAAGCCTGTGATGGGCCTGAAGTCCCCGCGGCTGGTCGCCCCCGTCCCGCCCGGAGCAGCCCCGGCCAATGGCCGCCTTAGCAGCAGCAGTGGCTCCGCCAGTGACCGCACGTCCTCCAACCCCTTCAGCGGCCGCTCGGCAGGCAGCCACCCCGGTACCCGAAGTGTGTCCGCGTCTTCAGGGCCCTGTAGCCCCGCGGCCCCACACCCGCCTCCACCGCCCCGGTTCCAGCCCCACCAAGGCCCTTGGGGAGCCCCGAGTCCCCAGGCCCACCTCTCCCCGCGGCCCCACGACGGCCCGCCCGCCGCTGTCTACAGCAACCTGGGGGCCTACAGGCCCACGCGGCTGCAGCTGGAGCAGCTGGGCCTGGTGCCGAGGCTGACTCCAACCTGGAGGCCCTTCCTGCAGGCCTCCCCTCACTTCTGA
modifications: Homo sapien
FAM83A [5]
  23 kDa FAM83A band: reduced
  99 kDa FAM83A band: reduced

Source: patent publication US9303088B2, “Detecting and treating breast cancer resistance to EGFR inhibitors” (The Regents of the University of California, priority 2009, dated 2016)
